In US20250195671A1, “COVALENT ANESTHETIC-POLYMER CONJUGATES FOR PROLONGED LOCAL ANESTHESIA” (priority 2017, published 2025):
Like-named read-outs stand apart in the source and are kept apart here.

Columns and labels:
sciatic nerve [1] = settings: rat, in vivo
[2] = tested on: sciatic nerve and surrounding tissues; settings: rat, in vivo
[3] = in vivo; cited from earlier work
rat sciatic nerve = settings: rat model; cited from earlier work
[4] = cited from earlier work
sciatic nerve [5] = tested on: sciatic nerve
rat = settings: in vivo

Q: Which “blockade, % of animals” value (sciatic nerve [1]) does the source give for `N=C1NC(O)[C@H]2[C@@H]3OC4(O)OC(C(O)[C@@]2(N1)[C@@H]4O)[C@]3(O)CO` (some centres unmarked) [TTX, Tetrodotoxin] here?
A: 100%

Q: What about the “nerve blockade, % of animals” value (sciatic nerve [1]) of the same molecule?
A: 100%

Q: And the “successful block, % of animals” value (sciatic nerve [1])?
A: 100%

Q: What about the “Median inflammation score (range), Day 4” value [2] of the same molecule?
A: 0.5(0-1)

Q: What about the “Median inflammation score (range), Day 14” value [2] of the same molecule?
A: 0(0-0)

Q: And the “Median myotoxicity score (range), Day 4” value [2]?
A: 0(0-0)

Q: And the “Median myotoxicity score (range), Day 14” value [2]?
A: 0.5(0-1)^

Q: And the “myotoxicity and inflammation, microscopic examination” value [2]?
A: did not reveal significant myotoxicity and inflammation

Q: For `COc1cc(CNC(=O)CCCC/C=C/C(C)C)ccc1O` [capsaicin, 8-Methyl-N-vanillyl-trans-6-nonenamide], which pharmacokinetic half-life [3] is on record?
A: approximately 24 hours

Q: What about the “minimum effective dose to produce nerve blockade” value (rat sciatic nerve) of the same molecule?
A: approximately 50 μg

Q: And the solubility ([4]; alcohol, fats and oils)?
A: freely soluble

Q: And the solubility ([4]; cold water)?
A: insoluble

Q: Which results are given for `O=C1OC2(c3ccc(O)cc3Oc3cc(O)ccc32)c2ccccc21` [fluorescein sodium]?
A: fluorescence in the nerve (sciatic nerve [5]; 0.25 mg in 0.5 mL of PBS, 1 and 4 hours): No fluorescence was observed in the nerve; fluorescence in the nerve (sciatic nerve [5]; 0.25 mg in 0.5 mL of PEG200, four hours after injection): none; fluorescence in the nerve (sciatic nerve [5]; 0.25 mg in 0.5 mL of PEG200, one hour after injection): fluorescence was observed throughout the nerve

Q: With poly(glycerol sebacate) [TgD8] as the molecule, how does the “Contralateral block (%)” value (rat) read?
A: 0%

Q: And the “Mortality (%)” value (rat)?
A: 0%
